36 compounds from US9447051B2, “Diaminopyrimidines and uses thereof” (AbbVie inc., priority 2012, dated 2016) can be followed below.

In this experiment the test system is RSV (Group A, Long Strain). In words: Antiviral (RSV) assay: cytopathetic effect (CPE) protection assay in HEp-2 cells, MTT readout. It is filed as cell-based, human respiratory syncytial virus (RSV). The settings on record: Table 1, 0.2 MOI RSV, 4 days incubation, protection from CPE. As for the experimental part:
HEp-2 cells and RSV (Group A, Long Strain) were obtained from the American Type Culture Collection (Manassas, Va.). A cytopathetic effect (CPE) protection assay was performed to determine the ability of a compound to protect the cells from viral infection and thus the CPE induced by viral infection. 96-well plates were first seeded with 3×10^3 HEp-2 cells per well in Dulbecco's modified Eagle's medium (DMEM) containing 10% fetal bovine serum (FBS). One day after the cells were seeded, they were preincubated with serial dilutions of compounds prepared in 100 μL assay medium (DMEM mixed with F12 medium at a 1:1 ratio, supplemented with 2% FBS and 1 mM sodium pyruvate) for 1 hour at 37° C. 100 μL of assay medium containing 0.2 multiplicity of infection (MOI) of RSV was then added to each well of cells. In addition to wells containing infected cells incubated with compounds, each plate also contained replicates of two kinds of controls: (1) Virus control contained cells infected with 0.2 MOI of RSV in assay medium, (2) Uninfected cell control contained cells incubated with assay medium only. After 4 days of incubation at 37° C., the viability of cells was assessed using MTT (Thiazolyl blue tetrazolium bromide, Sigma). A stock solution of MTT, at a concentration of 4 mg/mL in phosphate-buffered saline, was added to all wells at 25 μL per well. Plates were further incubated for 4 hours, and each well was then treated with 50 μL of a solution containing 20% sodium dodecyl sulfate (SDS) and 0.02 N HCl. After an overnight incubation, the plates were measured on a BioTek® microtiter plate reader at wavelengths of 570 nm and 650 nm. The MTT detection is based on the fact that viable (uninfected) cells can reduce the tetrazolium salts into colored formazan products, which can then be quantitated by spectrometry. […] Compounds were tested to determine both their antiviral and toxicity to determine their therapeutic window. Determination of the EC50 and TD50 of these active compounds were repeated one additional time to confirm the window.

Where [1] appears, read: human respiratory syncytial virus, HEp-2, 96 h.

As a reminder, the EC50 is the concentration at which the effect is half-maximal. Take `Cc1nc(NCc2ccccn2)nc(NC2CCC(O)C2)c1C` (stereo not drawn) [Example 34, 3-({5,6-dimethyl-2-[(pyridin-2-ylmethyl)amino]pyrimidin-4-yl}amino)cyclopentanol]: under setting [1], the EC50 is 4.3 µM.

Regarding `Cc1nc(NCc2ccccn2)nc(NC2CCCc3ccccc32)c1C` (stereo not drawn) [Example 35, 5,6-dimethyl-N^2-(pyridin-2-ylmethyl)-N^4-(1,2,3,4-tetrahydronaphthalen-1-yl)pyrimidine-2,4-diamine], the EC50 under setting [1] was found to be 0.12 µM.

Turning to `Cc1nc(NCc2ccccn2)nc(NC2CCOc3ccccc32)c1C` (stereo not drawn) [Example 36, N^4-(3,4-dihydro-2H-chromen-4-yl)-5,6-dimethyl-N^2-(pyridin-2-ylmethyl)pyrimidine-2,4-diamine], under setting [1], the midpoint of the response, the EC50, lay at 0.53 µM.

Compound `Cc1nc(NCc2ccccn2)nc(NC2CCC(C)(O)CC2)c1C` (stereo not drawn) [Example 37, cis-4-({5,6-dimethyl-2-[(pyridin-2-ylmethyl)amino]pyrimidin-4-yl}amino)-1-methylcyclohexanol] came in with an EC50 of 0.36 µM.

`Cc1nc(NCc2ccccn2)nc(NC2CCC(C)(O)CC2)c1C` (stereo not drawn) [Example 38, trans-4-({5,6-dimethyl-2-[(pyridin-2-ylmethyl)amino]pyrimidin-4-yl}amino)-1-methylcyclohexanol]: the half-maximal effective concentration (EC50) was 2.4 µM.

Under setting [1], `Cc1nc(NCc2ccccn2)nc(NC2CC3CCC2C3)c1C` (stereo not drawn) [Example 39, N^4-(bicyclo[2.2.1]hept-2-yl)-5,6-dimethyl-N^2-(pyridin-2-ylmethyl)pyrimidine-2,4-diamine] returned an EC50 of 1.25 µM.

The compound `Cc1nc(NCc2ccccn2)nc(NC2CCCCC2C)c1C` (stereo not drawn) [Example 40, 5,6-dimethyl-N^4-(2-methylcyclohexyl)-N^2-(pyridin-2-ylmethyl)pyrimidine-2,4-diamine] showed an EC50 under setting [1] of 0.065 µM.

Under setting [1], `Cc1nc(NCc2ccccn2)nc(NC2CCCC(C)C2C)c1C` (stereo not drawn) [Example 41, N^4-(2,3-dimethylcyclohexyl)-5,6-dimethyl-N^2-(pyridin-2-ylmethyl)pyrimidine-2,4-diamine] showed an EC50 of 0.04 µM.

In turn, `Cc1nc(NCc2ccccn2)nc(NC2CCCCC2O)c1C` (stereo not drawn) [Example 42, 2-({5,6-dimethyl-2-[(pyridin-2-ylmethyl)amino]pyrimidin-4-yl}amino)cyclohexanol] displayed an EC50 under setting [1] of 0.3 µM.

The compound `Cc1nc(NCc2ccccn2)nc(NCC2CCCC2)c1C` [Example 44, N^4-(cyclopentylmethyl)-5,6-dimethyl-N^2-(pyridin-2-ylmethyl)pyrimidine-2,4-diamine] returned an EC50 under setting [1] of 24 µM.

For the compound `Cc1nc(NCc2ccccn2)nc(NC2CCCCCC2)c1C` [Example 45, N^4-cycloheptyl-5,6-dimethyl-N^2-(pyridin-2-ylmethyl)pyrimidine-2,4-diamine], under setting [1], the 50% effective concentration (EC50) stood at 0.018 µM.

As for `Cc1nc(NCc2ccccn2)nc(NC2Cc3ccccc3C2)c1C` [Example 46, N^4-(2,3-dihydro-1H-inden-2-yl)-5,6-dimethyl-N^2-(pyridin-2-ylmethyl)pyrimidine-2,4-diamine], under setting [1], a half-maximal response (EC50) required 0.32 µM.

With `Cc1nc(NCc2ccccn2)nc(NC2CCC2)c1C` [Example 47, N^4-cyclobutyl-5,6-dimethyl-N^2-(pyridin-2-ylmethyl)pyrimidine-2,4-diamine], under setting [1], the EC50 is > 5.3 µM.

`CCC(CC)Nc1nc(NCc2ccccn2)nc(C)c1C` [Example 48, 5,6-dimethyl-N^4-(pentan-3-yl)-N^2-(pyridin-2-ylmethyl)pyrimidine-2,4-diamine] gave an EC50 under setting [1] of 0.27 µM.

Under setting [1], `Cc1nc(NCc2ccccn2)nc(Nc2cccc(F)c2)c1C` [Example 49, N^4-(3-fluorophenyl)-5,6-dimethyl-N^2-(pyridin-2-ylmethyl)pyrimidine-2,4-diamine] displayed an EC50 of 0.31 µM.

Under setting [1], `Cc1nc(NCc2ccccn2)nc(Nc2ccc(F)cc2)c1C` [Example 50, N^4-(4-fluorophenyl)-5,6-dimethyl-N^2-(pyridin-2-ylmethyl)pyrimidine-2,4-diamine] registered a half-maximal effective concentration (EC50) of 0.1 µM.

Turning to `Cc1nc(NCc2ccccn2)nc(Nc2ccccc2F)c1C` [Example 51, N^4-(2-fluorophenyl)-5,6-dimethyl-N^2-(pyridin-2-ylmethyl)pyrimidine-2,4-diamine], it took 0.32 µM to reach a half-maximal effect under setting [1] (EC50).

In turn, `Cc1nc(NCc2ccccn2)nc(Nc2ccccc2)c1C` [Example 52, 5,6-dimethyl-N^4-phenyl-N^2-(pyridin-2-ylmethyl)pyrimidine-2,4-diamine] gave an EC50 under setting [1] of 0.27 µM.

The compound `Cc1nc(NCc2ccccn2)nc(Nc2cccc(OC(F)(F)F)c2)c1C` [Example 53, 5,6-dimethyl-N^2-(pyridin-2-ylmethyl)-N^4-[3-(trifluoromethoxy)phenyl]pyrimidine-2,4-diamine] gave a half-maximal effective concentration (EC50) under setting [1] of 0.038 µM.

Regarding `Cc1nc(NCc2ccccn2)nc(Nc2cccc(C(F)(F)F)c2)c1C` [Example 54, 5,6-dimethyl-N^2-(pyridin-2-ylmethyl)-N^4-[3-(trifluoromethyl)phenyl]pyrimidine-2,4-diamine], under setting [1], the half-maximal effective concentration (EC50) was 0.025 µM.

For the compound `Cc1nc(NCc2ccccn2)nc(Nc2c(F)cccc2F)c1C` [Example 55, N^4-(2,6-difluorophenyl)-5,6-dimethyl-N^2-(pyridin-2-ylmethyl)pyrimidine-2,4-diamine], the EC50 under setting [1] worked out at 0.14 µM.

For the compound `Cc1nc(NCc2ccccn2)nc(Nc2ccc(OC(F)(F)F)cc2)c1C` [Example 56, 5,6-dimethyl-N^2-(pyridin-2-ylmethyl)-N^4-[4-(trifluoromethoxy)phenyl]pyrimidine-2,4-diamine], the concentration for a half-maximal effect (EC50) under setting [1] is 0.4 µM.

Turning to `Cc1nc(NCc2ccccn2)nc(Nc2ccc(C(F)(F)F)cc2)c1C` [Example 57, 5,6-dimethyl-N^2-(pyridin-2-ylmethyl)-N^4-[4-(trifluoromethyl)phenyl]pyrimidine-2,4-diamine], under setting [1], the EC50 was 0.23 µM.

As to `Cc1nc(NCc2ccccn2)nc(Nc2ccc(F)c(F)c2)c1C` [Example 58, N^4-(3,4-difluorophenyl)-5,6-dimethyl-N^2-(pyridin-2-ylmethyl)pyrimidine-2,4-diamine], the EC50 under setting [1] was 0.063 µM.

`Cc1nc(NCc2ccccn2)nc(Nc2ccccc2OC(F)(F)F)c1C` [Example 59, 5,6-dimethyl-N^2-(pyridin-2-ylmethyl)-N^4-[2-(trifluoromethoxy)phenyl]pyrimidine-2,4-diamine]: under setting [1], the half-maximal effective concentration (EC50) turned out to be 0.03 µM.

Take `Cc1nc(NCc2ccccn2)nc(Nc2cc(F)ccc2F)c1C` [Example 60, N^4-(2,5-difluorophenyl)-5,6-dimethyl-N^2-(pyridin-2-ylmethyl)pyrimidine-2,4-diamine]: the concentration giving a half-maximal response (EC50) under setting [1] is 0.1 µM.

Under setting [1], `Cc1nc(NCc2ccccn2)nc(Nc2ccc3c(c2)OCO3)c1C` [Example 61, N^4-(1,3-benzodioxol-5-yl)-5,6-dimethyl-N^2-(pyridin-2-ylmethyl)pyrimidine-2,4-diamine] registered an EC50 of 0.04 µM.

Take `Cc1nc(NCc2ccccn2)nc(Nc2ccc(Cl)cc2)c1C` [Example 62, N^4-(4-chlorophenyl)-5,6-dimethyl-N^2-(pyridin-2-ylmethyl)pyrimidine-2,4-diamine]: the concentration giving a half-maximal response (EC50) under setting [1] was 0.094 µM.

Under setting [1], `Cc1ccc(Nc2nc(NCc3ccccn3)nc(C)c2C)cc1` [Example 63, 5,6-dimethyl-N^4-(4-methylphenyl)-N^2-(pyridin-2-ylmethyl)pyrimidine-2,4-diamine] came in with an EC50 of 0.052 µM.

In the case of `Cc1nc(NCc2ccccn2)nc(Nc2cc(F)cc(F)c2)c1C` [Example 64, N^4-(3,5-difluorophenyl)-5,6-dimethyl-N^2-(pyridin-2-ylmethyl)pyrimidine-2,4-diamine], under setting [1], the EC50 was 0.04 µM.

For `Cc1nc(NCc2ccccn2)nc(Nc2cccc(Cl)c2)c1C` [Example 65, N^4-(3-chlorophenyl)-5,6-dimethyl-N^2-(pyridin-2-ylmethyl)pyrimidine-2,4-diamine], a half-maximal effect under setting [1] (EC50) was put at 0.04 µM.

On to `Cc1nc(NCc2ccccn2)nc(Nc2ccccc2Cl)c1C` [Example 66, N^4-(2-chlorophenyl)-5,6-dimethyl-N^2-(pyridin-2-ylmethyl)pyrimidine-2,4-diamine], for which, under setting [1], the EC50 turned out to be 0.034 µM.

With `Cc1ccccc1Nc1nc(NCc2ccccn2)nc(C)c1C` [Example 67, 5,6-dimethyl-N^4-(2-methylphenyl)-N^2-(pyridin-2-ylmethyl)pyrimidine-2,4-diamine], a half-maximal response under setting [1] (EC50) required 0.007 µM.

As for `Cc1cccc(C)c1Nc1nc(NCc2ccccn2)nc(C)c1C` [Example 68, N^4-(2,6-dimethylphenyl)-5,6-dimethyl-N^2-(pyridin-2-ylmethyl)pyrimidine-2,4-diamine], it took 0.009 µM to reach a half-maximal effect under setting [1] (EC50).

Consider `Cc1cccc(Nc2nc(NCc3ccccn3)nc(C)c2C)c1` [Example 69, 5,6-dimethyl-N^4-(3-methylphenyl)-N^2-(pyridin-2-ylmethyl)pyrimidine-2,4-diamine], for which the EC50 under setting [1] came out at 0.11 µM.

Compound `Cc1nc(NCc2ccccn2)nc(NC2CCS(=O)(=O)C2)c1C` (stereo not drawn) [Example 70, N^4-(1,1-dioxidotetrahydrothiophen-3-yl)-5,6-dimethyl-N^2-(pyridin-2-ylmethyl)pyrimidine-2,4-diamine] gave an EC50 under setting [1] of 0.95 µM.
